The target in series [1] is T1, human adenosine A2A receptor (Homo sapiens, UniProt P29274).
T1 construct: expressed in transfected cells; host or cells: CHO cells, semliki forest virus expression system; membrane preparation
Briefly: [3H]-SCH-58261 binding assay, human adenosine A2A receptor expressed in CHO cell membranes (SPA). The conditions noted are these: [3H]-SCH-58261 (1 nM) displacement; recombinant receptor in CHO cell membranes; Ki by Cheng-Prussoff from IC50; read-out: hA2 (pKi) (converted). How it is done: Human Adenosine A2A Receptor
The human adenosine A2A receptor was recombinantly expressed in chinese hamster ovary (CHO) cells using the semliki forest virus expression system. Cells were harvested, washed twice by centrifugation, homogenised and again washed by centrifugation. The final washed membrane pellet was suspended in a Tris (50 mM) buffer containing 120 mM NaCl, 5 mM KCl, 2 mM CaCl2 and 10 mM MgCl2 (pH 7.4) (buffer A). The [^3H]-SCH-58261 (Dionisotti et al., 1997, Br J Pharmacol 121, 353; 1 nM) binding assay was carried out in 96-well plates in the presence of 2.5 μg of membrane protein, 0.5 mg of Ysi-poly-1-lysine SPA beads and 0.1 U adenosine deaminase in a final volume of 200 μl of buffer A. Non-specific binding was defined using xanthine amine congener (XAC; 2 μM). Compounds were tested at 10 concentrations from 10 μM −0.3 nM. All assays were conducted in duplicate and repeated at least two times. Assay plates were incubated for 1 hour at room temperature before centrifugation and then bound ligand determined using a Packard Topcount scintillation counter. IC50 values were calculated using a non-linear curve fitting program and Ki values calculated using the Cheng-Prussoff equation.

The text below walks through data of patent US6624163B2, “Benzothiazole derivatives” (Hoffman-La Roche Inc., priority 2001, dated 2003).

T1 sequence (P29274 whole entry): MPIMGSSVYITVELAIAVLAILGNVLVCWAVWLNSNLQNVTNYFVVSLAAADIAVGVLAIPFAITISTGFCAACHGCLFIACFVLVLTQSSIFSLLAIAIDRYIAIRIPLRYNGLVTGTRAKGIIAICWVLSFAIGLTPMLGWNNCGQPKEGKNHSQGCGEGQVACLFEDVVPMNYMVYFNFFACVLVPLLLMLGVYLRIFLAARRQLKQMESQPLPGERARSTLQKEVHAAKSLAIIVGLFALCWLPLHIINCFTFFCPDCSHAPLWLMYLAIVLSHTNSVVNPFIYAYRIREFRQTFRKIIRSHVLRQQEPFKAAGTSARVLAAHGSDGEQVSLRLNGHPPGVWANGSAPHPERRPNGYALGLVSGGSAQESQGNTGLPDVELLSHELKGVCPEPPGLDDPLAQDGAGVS

Take `COCCN(C)CC(=O)N(C)Cc1ccc(C(=O)Nc2nc3c(OC)ccc(N4CCOCC4)c3s2)cc1` [Example 18, 4-[({[(2-Methoxy-ethyl)-methyl-amino]-acetyl}-methyl-amino)-methyl]-N-(4-methoxy-7-morpholin-4-yl-benzothiazol-2-yl)-benzamide]: the melting point (as a rule, the temperature of the solid-liquid transition) is 171 to 173 °C.
For `CCC(=O)N(CC)Cc1ccc(C(=O)Nc2nc3c(OC)ccc(N4CCOCC4)c3s2)cc1` [Example 14, 4-[(Ethyl-propionyl-amino)-methyl]-N-(4-methoxy-7-morpholin-4-yl-benzothiazol-2-yl)-benzamide], in series [1], the Ki was 1.26 nM.
The same measure, in the same setting: then `COc1ccc(N2CCOCC2)c2sc(NC(=O)c3ccc(CNC(=O)C4CC4)cc3)nc12` [Example 9, 4-[(Cyclopropanecarbonyl-amino)-methyl]-N-(4-methoxy-7-morpholin-4-yl-benzothiazol-2-yl)-benzamide], with 1 nM.
In the case of `CCC(=O)N(C)Cc1ccc(C(=O)Nc2nc3c(OC)ccc(N4CCOCC4)c3s2)cc1` [Example 6, N-(4-Methoxy-7-morpholin-4-yl-benzothiazol-2-yl)-4-[(methyl-propionyl-amino)-methyl]-benzamide], the Ki in series [1] was 0.631 nM.
As to `COCC(=O)N(C)Cc1ccc(C(=O)Nc2nc3c(OC)ccc(N4CCOCC4)c3s2)cc1` [Example 2, 4-[(Methoxyacetyl-methyl-amino)-methyl]-N-(4-methoxy-7-morpholin-4-yl-benzothiazol-2-yl)-benzamide], the Ki in series [1] was 1.26 nM.
In the case of `COc1ccc(N2CCOCC2)c2sc(NC(=O)c3ccc(CN(C)C(=O)C4CCC4)cc3)nc12` [Example 5, 4-[(Cyclobutanecarbonyl-methyl-amino)-methyl]-N-(4-methoxy-7-morpholin-4-yl-benzothiazol-2-yl)-benzamide], the Ki in series [1] is 0.794 nM.
For the compound `COc1ccc(N2CCOCC2)c2sc(NC(=O)c3ccc(CN(C)C(=O)C4CC4)cc3)nc12` [Example 4, 4-[(Cyclopropanecarbonyl-methyl-amino)-methyl]-N-(4-methoxy-7-morpholin-4-yl-benzothiazol-2-yl)-benzamide], the Ki in series [1] was 0.631 nM.
Consider `COCC(=O)NCc1ccc(C(=O)Nc2nc3c(OC)ccc(N4CCOCC4)c3s2)cc1` [Example 1, 4-[(2-Methoxy-acetylamino)-methyl]-N-(4-methoxy-7-morpholin-4-yl-benzothiazol-2-yl)-benzamide], for which, in series [1], the Ki was 0.794 nM.
`COc1ccc(N2CCOCC2)c2sc(NC(=O)c3ccc(CNC(=O)C4CCC4)cc3)nc12` [Example 11, 4-[(Cyclobutanecarbonyl-amino)-methyl]-N-(4-methoxy-7-morpholin-4-yl-benzothiazol-2-yl)-benzamide]: the Ki in series [1] is 0.501 nM.
Take `COc1ccc(N2CCOCC2)c2sc(NC(=O)c3ccc(CN(C)C(C)=O)cc3)nc12` [Example 10, 4-[(Acetyl-methyl-amino)-methyl]-N-(4-methoxy-7-morpholin-4-yl-benzothiazol-2-yl)-benzamide]: the Ki in series [1] was 1 nM.
For `CCC(=O)NCc1ccc(C(=O)Nc2nc3c(OC)ccc(N4CCOCC4)c3s2)cc1` [Example 7, N-(4-Methoxy-7-morpholin-4-yl-benzothiazol-2-yl)-4-(propionylamino-methyl)-benzamide], in series [1], the Ki is 1 nM.
For the compound `COc1ccc(N2CCOCC2)c2sc(NC(=O)c3ccc(CN(C)C(=O)CN4CCCC4)cc3)nc12` [Example 19, N-(4-Methoxy-7-morpholin-4-yl-benzothiazol-2-yl)-4-{[methyl-(pyrrolidin-1-yl-acetyl)-amino]-methyl}-benzamide], the melting point lay within 114 to 116 °C. Further, the Ki in series [1] is 1.58 nM.
On to `COc1ccc(N2CCOCC2)c2sc(NC(=O)c3ccc(CNC(C)=O)cc3)nc12` [Example 12, 4-(Acetylamino-methyl)-N-(4-methoxy-7-morpholin-4-yl-benzothiazol-2-yl)-benzamide], for which the Ki in series [1] was 0.794 nM.
For `COc1ccc(N2CCOCC2)c2sc(NC(=O)c3ccc(CN(C)C(=O)CN(C)C)cc3)nc12` [Example 15, 4-[(Dimethylaminoacetyl-methyl-amino)-methyl]-N-(4-methoxy-7-morpholin-4-yl-benzothiazol-2-yl)-benzamide], the Ki in series [1] was 1.26 nM.
